Literature values, collected in patent publication US20130164233A1, “SKIN-WHITENING ESSENCE COMPOSITION CONTAINING TYROSINASE INHIBITOR” (priority 2011, published 2013).

System: skin
Settings: conventionally

NC[C@H]1CC[C@H](C(=O)O)CC1 [tranexamic acid]
Concentration needed to give whitening effect: higher than 3%
